Assays:
[1] = test system: progesterone receptor (PR); experiment: Uterine progesterone receptor levels, hydroxyapatite assay (Example 8); type: in vivo, female Sprague-Dawley rats; conditions: for ED40-60 for Inhibition, PRc / ED40-60 for Inhibition, PRn: cotreatment with 17β-estradiol
Experimental: (§1) The animals were terminated by cervical dislocation. Livers were perfused with ice-cold TEDG buffer (10 mM Tris-HCl, 1.5 mM EDTA-4Na, 1 mM dithiothreitol, 10% glycerol (v/v), pH 7.4). Following perfusion in situ, livers were removed, weighed, and homogenized in ice-cold TEDG buffer. Uteri were also removed, weighed, and homogenized in ice-cold buffer. The homogenates were then centrifuged at 800×g ([…]) for 15 minutes and the nuclear pellets were stored at -80° C. The supernatants were further centrifuged at 180,000× g for 1.5 hours. The cytosolic supernatant was also stored at -80° C. Estrogen and progesterone receptor levels were determined within 7 days.
(§2) Estrogen (ER) and progesterone (PR) receptor levels were determined by the hydroxyapatite assay as described by Clark et al. (J. Steroid Biochem. 16:323-328, 1982) and incorporated herein by reference. […] Following the incubations, samples were counted and specific binding was calculated by subtraction of nonspecific from total binding. Assuming one steroid molecule binds to one estrogen/progesterone receptor, the number of moles of receptor can be calculated given the specific activity of the radioligand. The data presented in Tables 1 through 6 are means ± SD using at least four animals per treatment group. Significant differences were determined by analysis of variance.

estrogen receptor (ER) = experiment: Uterine estrogen receptor levels, hydroxyapatite assay (Example 8); type: in vivo, female Sprague-Dawley rats; conditions: for ED40-60 for Inhibition, ERc / ED40-60 for Inhibition, ERn: cotreatment with 17β-estradiol
Experimental: A second group of animals was similarly treated with corn oil, TCDD, MCDF, or TCDD plus MCDF, all administered in corn oil at 10 ml/kg and terminated 72 hours later.
as §1, §2

female rat uterus = experiment: Antiestrogenic effect on uterine wet weight, immature female Sprague-Dawley rats (Example 8); type: in vivo
[2] = dose-response, 2 μmol/kg + 17β-estradiol (2 × 10 μg/rat)
[3] = dose-response, 10 μmol/kg + 17β-estradiol (2 × 10 μg/rat)
[4] = dose-response, 25 μmol/kg + 17β-estradiol (2 × 10 μg/rat)
[5] = dose-response, 50 μmol/kg + 17β-estradiol (2 × 10 μg/rat)
[6] = dose-response, 150 μmol/kg + 17β-estradiol (2 × 10 μg/rat)
[7] = Table 2: 50 μmol/kg + E-2 (2 × 10 μg/rat)
[8] = Table 2: compound alone, 50 μmol/kg (17β-estradiol: 2 × 10 μg/rat)
[9] = Table 3: 50 μmol/kg + E-2 (2 × 10 μg/rat)
[10] = Table 3: compound alone, 50 μmol/kg (17β-estradiol: 2 × 10 μg/rat)
[11] = 150 μmol/kg + E-2 (2 × 10 μg/rat), run B
[12] = compound alone, 150 μmol/kg (17β-estradiol: 2 × 10 μg/rat), run B
[13] = 150 μmol/kg + E-2 (2 × 10 μg/rat), run A
[14] = compound alone, 150 μmol/kg (17β-estradiol: 2 × 10 μg/rat), run A

| SMILES | ED40-60 for Inhibition, PRc [1] | ED40-60 for Inhibition, PRn [1] | Progesterone Receptor Levels, Cytosolic [1, 2] | Progesterone Receptor Levels, Nuclear [1, 2] | Progesterone Receptor Levels, Cytosolic [1, 3] | Progesterone Receptor Levels, Nuclear [1, 3] | Progesterone Receptor Levels, Cytosolic [1, 4] | Progesterone Receptor Levels, Nuclear [1, 4] | Progesterone Receptor Levels, Cytosolic [1, 5] | Progesterone Receptor Levels, Nuclear [1, 5] | ED40-60 for Inhibition, ERc (estrogen receptor (ER)) | Estrogen Receptor Levels, Cytosolic (estrogen receptor (ER); [3]) | Estrogen Receptor Levels, Nuclear (estrogen receptor (ER); [3]) | Estrogen Receptor Levels, Cytosolic (estrogen receptor (ER); [4]) | Estrogen Receptor Levels, Nuclear (estrogen receptor (ER); [4]) | Estrogen Receptor Levels, Cytosolic (estrogen receptor (ER); [5]) | Estrogen Receptor Levels, Nuclear (estrogen receptor (ER); [5]) | Uterine Wet Weight (female rat uterus; [3]) | Uterine Wet Weight (female rat uterus; [4]) | Uterine Wet Weight (female rat uterus; [5]) | also measured |
| --- | --- | --- | --- | --- | --- | --- | --- | --- | --- | --- | --- | --- | --- | --- | --- | --- | --- | --- | --- | --- | --- |
| Cc1cc2c(cc1Cl)oc1cc(Cl)c(Cl)cc12 [8-methyl-2,3,7-triCDF, 8-Methyl-2,3,7-Trichlorodibenzofuran] | 2 µmol/kg | 10 µmol/kg | 1673 ± 117 fmol/mg protein | 835 ± 50 fmol/mg protein | 1596 ± 112 fmol/mg protein | 685 ± 62 fmol/mg protein | 1461 ± 102 fmol/mg protein | 631 ± 37 fmol/mg protein | 856 ± 60 fmol/mg protein | 605 ± 66 fmol/mg protein | 2 µmol/kg | 125.3 ± 6.3 fmol/mg protein | 76.8 ± 3.8 fmol/mg protein | 117.5 ± 5.9 fmol/mg protein | 72.8 ± 3.6 fmol/mg protein | 107.1 ± 5.4 fmol/mg protein | 67.3 ± 4.0 fmol/mg protein | 0.211 ± 0.019 % body wt | 0.192 ± 0.004 % body wt | 0.224 ± 0.012 % body wt | ED40-60 for Inhibition, ERn (estrogen receptor (ER)): 10 µmol/kg; Estrogen Receptor Levels, Cytosolic (estrogen receptor (ER); [2]): 131.8 ± 6.6 fmol/mg protein; Estrogen Receptor Levels, Nuclear (estrogen receptor (ER); [2]): 90.2 ± 5.4 fmol/mg protein; Uterine Wet Weight (female rat uterus; [2]): 0.192 ± 0.013 % body wt |
| CCCc1cc(Cl)cc2c1oc1cc(Cl)cc(Cl)c12 [6-Propyl-1,3,8-Trichlorodibenzofuran] |  |  |  |  | 1501 ± 105 fmol/mg protein | 850 ± 68 fmol/mg protein | 1055 ± 74 fmol/mg protein | 515 ± 41 fmol/mg protein | 1105 ± 77 fmol/mg protein | 510 ± 41 fmol/mg protein |  | 105.5 ± 5.3 fmol/mg protein | 81.5 ± 4.9 fmol/mg protein | 87.8 ± 4.4 fmol/mg protein | 56.6 ± 2.8 fmol/mg protein | 66.7 ± 3.3 fmol/mg protein | 41.1 ± 2.1 fmol/mg protein | 0.192 ± 0.013 % body wt | 0.170 ± 0.010 % body wt | 0.202 ± 0.014 % body wt | Progesterone Receptor Levels, Cytosolic [1, 6]: 1190 ± 83 fmol/mg protein; Progesterone Receptor Levels, Nuclear [1, 6]: 660 ± 53 fmol/mg protein; Estrogen Receptor Levels, Cytosolic (estrogen receptor (ER); [6]): 88.2 ± 4.4 fmol/mg protein; Estrogen Receptor Levels, Nuclear (estrogen receptor (ER); [6]): 35.6 ± 1.8 fmol/mg protein; Uterine Wet Weight (female rat uterus; [6]): 0.216 ± 0.012 % body wt |
| Cc1cc(Cl)cc2c1oc1c(Cl)c(Cl)c(Cl)cc12 [6-Methyl-2,3,4,8-tetraCDF, 6-Methyl-2,3,4,8-tetrachlorodibenzofuran] | 2 µmol/kg | 10 µmol/kg | 1220 ± 85 fmol/mg protein | 925 ± 74 fmol/mg protein | 970 ± 68 fmol/mg protein | 765 ± 61 fmol/mg protein | 1000 ± 63 fmol/mg protein | 645 ± 52 fmol/mg protein | 885 ± 53 fmol/mg protein | 450 ± 36 fmol/mg protein | 2 µmol/kg | 83.9 ± 4.2 fmol/mg protein | 53.8 ± 3.2 fmol/mg protein | 75.1 ± 3.8 fmol/mg protein | 49.3 ± 3.0 fmol/mg protein | 71.0 ± 3.6 fmol/mg protein | 40.0 ± 2.4 fmol/mg protein | 0.221 ± 0.020 % body wt | 0.191 ± 0.006 % body wt | 0.158 ± 0.004 % body wt | Progesterone Receptor Levels, Cytosolic [1, 7]: 795 ± 52 fmol/mg protein; Progesterone Receptor Levels, Nuclear [1, 7]: 1081 ± 131 fmol/mg protein; Progesterone Receptor Levels, Cytosolic [1, 8]: 625 ± 71 fmol/mg protein; Progesterone Receptor Levels, Nuclear [1, 8]: 457 ± 58 fmol/mg protein; Estrogen Receptor Levels, Cytosolic (estrogen receptor (ER); [7]): 176.3 ± 20.3 fmol/mg protein; Estrogen Receptor Levels, Nuclear (estrogen receptor (ER); [7]): 69.9 ± 9.4 fmol/mg protein; Estrogen Receptor Levels, Cytosolic (estrogen receptor (ER); [8]): 96.2 ± 11.2 fmol/mg protein; Estrogen Receptor Levels, Nuclear (estrogen receptor (ER); [8]): 31.3 ± 5.6 fmol/mg protein; ED40-60 for Inhibition, ERn (estrogen receptor (ER)): 2 µmol/kg; Estrogen Receptor Levels, Cytosolic (estrogen receptor (ER); [2]): 86.7 ± 4.3 fmol/mg protein; Estrogen Receptor Levels, Nuclear (estrogen receptor (ER); [2]): 64.7 ± 3.9 fmol/mg protein; Uterine Wet Weight (female rat uterus; [7]): 0.163 ± 0.019 % body wt; Uterine Wet Weight (female rat uterus; [8]): 0.109 ± 0.020 % body wt; Uterine Wet Weight (female rat uterus; [2]): 0.268 ± 0.044 % body wt |
| Cc1cc2c(cc1Br)oc1cc(Br)c(Br)cc12 |  |  |  |  |  |  |  |  |  |  |  |  |  |  |  |  |  |  |  |  | Progesterone Receptor Levels, Cytosolic [1, 9]: 505 ± 35 fmol/mg protein; Progesterone Receptor Levels, Nuclear [1, 9]: 221 ± 15 fmol/mg protein; Progesterone Receptor Levels, Cytosolic [1, 10]: 362 ± 22 fmol/mg protein; Progesterone Receptor Levels, Nuclear [1, 10]: 270 ± 16 fmol/mg protein; Estrogen Receptor Levels, Cytosolic (estrogen receptor (ER); [9]): 133.3 ± 6.7 fmol/mg protein; Estrogen Receptor Levels, Nuclear (estrogen receptor (ER); [9]): 80.0 ± 4.8 fmol/mg protein; Estrogen Receptor Levels, Cytosolic (estrogen receptor (ER); [10]): 128.2 ± 7.7 fmol/mg protein; Estrogen Receptor Levels, Nuclear (estrogen receptor (ER); [10]): 64.3 ± 4.6 fmol/mg protein; Uterine Wet Weight (female rat uterus; [9]): 0.259 ± 0.020 % body wt; Uterine Wet Weight (female rat uterus; [10]): 0.153 ± 0.003 % body wt |
| CC(C)(C)c1cc(Cl)cc2c1oc1cc(Cl)cc(Cl)c12 [6-t-Butyl-1,3,8-triCDF] |  |  |  |  |  |  |  |  |  |  |  |  |  |  |  |  |  |  |  |  | Progesterone Receptor Levels, Cytosolic [1, 11]: 1844 ± 77 fmol/mg protein; Progesterone Receptor Levels, Nuclear [1, 11]: 270 ± 19 fmol/mg protein; Progesterone Receptor Levels, Cytosolic [1, 12]: 1109 ± 83 fmol/mg protein; Progesterone Receptor Levels, Nuclear [1, 12]: 211 ± 15 fmol/mg protein; Estrogen Receptor Levels, Cytosolic (estrogen receptor (ER); [11]): 108.6 ± 11.4 fmol/mg protein; Estrogen Receptor Levels, Nuclear (estrogen receptor (ER); [11]): 41.7 ± 2.1 fmol/mg protein; Estrogen Receptor Levels, Cytosolic (estrogen receptor (ER); [12]): 85.5 ± 4.3 fmol/mg protein; Estrogen Receptor Levels, Nuclear (estrogen receptor (ER); [12]): 41.4 ± 2.1 fmol/mg protein; Uterine Wet Weight (female rat uterus; [11]): 0.247 ± 0.004 % body wt; Uterine Wet Weight (female rat uterus; [12]): 0.122 ± 0.013 % body wt |
| Cc1cc(Cl)c2oc3cc(Cl)cc(Cl)c3c2c1 [8-Methyl-1,3,6-triCDF] |  |  |  |  |  |  |  |  |  |  |  |  |  |  |  |  |  |  |  |  | Progesterone Receptor Levels, Cytosolic [1, 13]: 838 ± 66 fmol/mg protein; Progesterone Receptor Levels, Nuclear [1, 13]: 203 ± 35 fmol/mg protein; Progesterone Receptor Levels, Cytosolic [1, 14]: 686 ± 77 fmol/mg protein; Progesterone Receptor Levels, Nuclear [1, 14]: 188 ± 29 fmol/mg protein; Estrogen Receptor Levels, Cytosolic (estrogen receptor (ER); [13]): 65.9 ± 77.5 fmol/mg protein; Estrogen Receptor Levels, Nuclear (estrogen receptor (ER); [13]): 20.8 ± 70.5 fmol/mg protein; Estrogen Receptor Levels, Cytosolic (estrogen receptor (ER); [14]): 54.1 ± 6.2 fmol/mg protein; Estrogen Receptor Levels, Nuclear (estrogen receptor (ER); [14]): 38.1 ± 5.8 fmol/mg protein; Uterine Wet Weight (female rat uterus; [13]): 0.212 ± 0.021 % body wt; Uterine Wet Weight (female rat uterus; [14]): 0.089 ± 0.008 % body wt |
